Data taken from ChEMBL document CHEMBL3525922, “Significance of reductive metabolism in human intestine and quantitative prediction of intestinal first-pass metabolism by cytosolic reductive enzymes” (Drug Metab Dispos, 2013).

Assays:
Liver [1] = assay: Drug level in human liver S9 fraction treated with 10 uM mebendazole after 19.80 to 20.76 mins by HPLC-MS analysis; assay type: ADME, subcellular
[2] = Drug level in human intestinal cytosol treated with 10 uM mebendazole after 20.74 mins by HPLC-MS analysis; assay type: ADME, Intestine; conditions: 0.345667 h
Liver cytosol [3] = assay: Drug level in human liver cytosol treated with 10 uM mebendazole after 20.80 mins by HPLC-MS analysis; assay type: ADME, tissue-based; conditions: 0.346667 h
[4] = Drug level in human intestinal S9 fraction treated with 10 uM mebendazole 20.69 mins by HPLC-MS analysis; assay type: ADME, Intestine; conditions: s9, 0.344833 h
[5] = target: T1, carbonyl reductase (Carbonyl reductase [NADPH] 1) (Homo sapiens, UniProt P16152); assay: Activity of carbonyl reductase in liver cytosol (unknown origin) assessed as enzyme-mediated drug metabolism; assay type: ADME, tissue-based
T1 sequence (P16152 whole entry): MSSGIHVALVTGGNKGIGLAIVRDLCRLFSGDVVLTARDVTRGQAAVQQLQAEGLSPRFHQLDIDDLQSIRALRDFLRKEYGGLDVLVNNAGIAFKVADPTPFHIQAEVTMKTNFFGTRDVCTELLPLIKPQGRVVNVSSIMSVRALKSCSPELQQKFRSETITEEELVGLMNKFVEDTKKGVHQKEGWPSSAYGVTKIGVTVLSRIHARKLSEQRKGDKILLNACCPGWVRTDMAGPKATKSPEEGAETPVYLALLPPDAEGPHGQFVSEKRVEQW

[6] = target: T1, carbonyl reductase (Carbonyl reductase [NADPH] 1); assay: Activity of recombinant carbonyl reductase (unknown origin); assay type: ADME
[7] = Drug metabolism in human intestinal cytosol at 200 nM after 60 mins in presence of flufenamic acid; assay type: ADME, Intestine; conditions: 1 h, 0.2 µM
[8] = Apparent permeability of the compound at 50 uM at pH 7.4 after 240 mins by PAMPA; assay type: physicochemical
[9] = Drug metabolism in human intestinal cytosol at 200 nM after 60 mins in presence of ondansetron; assay type: ADME, Intestine; conditions: 1 h, 0.2 µM
[10] = Intrinsic clearance in human intestinal S9 fraction at 50 to 1000 nM after 60 mins by HPLC-MS/MS analysis; assay type: ADME, Intestine; conditions: s9, 1 h, 1 µM
Liver microsome [11] = assay: Drug metabolism in human liver microsomes assessed as hydrolyzed metabolite formation at 10 uM after 19.83 mins by HPLC-MS analysis; assay type: ADME; conditions: 0.3305 h
[12] = Drug metabolism in human intestinal S9 fraction assessed as reductive metabolite formation at 10 uM after 20.69 mins by HPLC-MS analysis; assay type: ADME, Intestine; conditions: s9, 0.344833 h
[13] = Metabolic stability in human intestinal microsomes assessed as compound remaining at 50 to 1000 nM after 60 mins by HPLC-MS/MS analysis; assay type: ADME, Intestine, Microsome; conditions: read-out: Stability
[14] = Drug metabolism in human intestinal cytosol assessed as reductive metabolite formation at 10 uM after 20.74 mins by HPLC-MS analysis; assay type: ADME, Intestine; conditions: 0.345667 h
[15] = Intrinsic clearance in human intestinal microsomes at 50 to 1000 nM after 60 mins by HPLC-MS/MS analysis; assay type: ADME, Intestine, Microsome; conditions: 1 h, 1 µM
[16] = Drug metabolism in human intestinal cytosol at 200 nM after 30 mins in presence of ondansetron; assay type: ADME, Intestine; conditions: 0.5 h, 0.2 µM
[17] = Drug metabolism in human liver S9 fraction assessed as hydrolyzed metabolite formation at 10 uM after 19.80 mins by HPLC-MS analysis; assay type: ADME, subcellular; conditions: s9, 0.33 h
Liver cytosol [18] = assay: Drug metabolism in human liver cytosol assessed as reductive metabolite formation at 10 uM after 20.80 mins by HPLC-MS analysis; assay type: ADME, tissue-based; conditions: 0.346667 h
[19] = Metabolic stability in human intestinal cytosol at 200 nM after 30 mins in presence of menadione; assay type: ADME, Intestine; conditions: 0.5 h, 0.2 µM
[20] = human, s9, 1 h, 1 µM
[21] = Drug metabolism in human liver S9 fraction assessed as reductive metabolite formation at 10 uM after 20.76 mins by HPLC-MS analysis; assay type: ADME, subcellular; conditions: s9, 0.346 h
[22] = Drug metabolism in human intestinal cytosol at 200 nM after 30 mins in presence of flufenamic acid; assay type: ADME, Intestine; conditions: 0.5 h, 0.2 µM
[23] = Metabolic stability in human intestinal S9 fraction assessed as compound remaining at 50 to 1000 nM after 60 mins by HPLC-MS/MS analysis in presence of NADH; design: dose or concentration left out as unconfirmed
[24] = Metabolic stability in human intestinal S9 fraction assessed as compound remaining at 50 to 1000 nM after 60 mins by HPLC-MS/MS analysis; assay type: ADME, Intestine; conditions: read-out: Stability
Liver microsome [25] = assay: Unbound intrinsic clearance in human liver microsomes at 50 to 1000 nM after 30 to 60 mins by HPLC-MS/MS analysis; assay type: ADME; conditions: 1 µM
[26] = Unbound intrinsic clearance in human intestinal S9 fraction at 50 to 1000 nM after 30 to 60 mins by HPLC-MS/MS analysis; assay type: ADME, Intestine; conditions: s9, 1 µM
[27] = Unbound intrinsic clearance in human intestinal microsomes at 50 to 1000 nM after 30 to 60 mins by HPLC-MS/MS analysis; assay type: ADME, Intestine, Microsome; conditions: 1 µM
[28] = Unbound intrinsic clearance in human intestinal cytosol at 50 to 1000 nM after 30 to 60 mins by HPLC-MS/MS analysis; assay type: ADME, Intestine; conditions: 1 µM
[29] = Unbound intrinsic clearance in human intestinal S9 fraction at 50 to 1000 nM after 30 to 60 mins by HPLC-MS/MS analysis in presence of NADH; assay type: ADME, Intestine; conditions: s9, 1 µM
Liver cytosol [30] = assay: Unbound intrinsic clearance in human liver cytosol at 50 to 1000 nM after 30 to 60 mins by HPLC-MS/MS analysis; assay type: ADME, tissue-based; conditions: 1 µM
[31] = Unbound intrinsic clearance in human intestinal S9 fraction at 50 to 1000 nM after 30 to 60 mins by HPLC-MS/MS analysis in presence of NADPH; assay type: ADME, Intestine; conditions: s9, 1 µM
[32] = Metabolic stability in human intestinal cytosol at 200 nM after 60 mins in presence of menadione; assay type: ADME, Intestine; conditions: 1 h, 0.2 µM
Liver [33] = assay: Unbound intrinsic clearance in human liver S9 fraction at 50 to 1000 nM after 30 to 60 mins by HPLC-MS/MS analysis; assay type: ADME, subcellular; conditions: s9, 1 µM

## Nc1nc2ccc(C(=O)c3ccccc3)cc2[nH]1
Liver [1]
  Drug metabolism: metabolite_detected

## COC(=O)Nc1nc2ccc(C(O)c3ccccc3)cc2[nH]1 (stereo unspecified)
Liver [1]
  Drug metabolism: metabolite_detected
[2]
  Drug metabolism: metabolite_detected
Liver cytosol [3]
  Drug metabolism: metabolite_detected
[4]
  Drug metabolism: metabolite_detected

## O=C(CCCN1CCC(O)(c2ccc(Cl)cc2)CC1)c1ccc(F)cc1 [HALOPERIDOL]
[5]
  Km: 250 µM
[6]
  Km: 1200 µM
[7]
  Drug metabolism: metabolite_detected
[8]
  Papp at 4 h, 50 µM: 33.7 ×10⁻⁶ cm/s
[9]
  Drug metabolism: metabolite_detected

## COC(=O)Nc1nc2ccc(C(=O)c3ccccc3)cc2[nH]1 [MEBENDAZOLE]
[10]
  CL: < 1.8 µL/min/mg
Liver microsome [11]
  Drug metabolism: metabolite_detected
[12]
  Drug metabolism: metabolite_detected
[13]
  remaining at 1 h, up to 1 µM: > 90%
[14]
  Drug metabolism: metabolite_detected
[15]
  CL: < 8.8 µL/min/mg
[16]
  Drug metabolism: metabolite_detected
[17]
  Drug metabolism: metabolite_detected
Liver cytosol [18]
  Drug metabolism: metabolite_detected
[19]
  Stability: Stable
[20]
  CL: < 1.8 µL/min/mg
[21]
  Drug metabolism: metabolite_detected
[22]
  Drug metabolism: metabolite_detected
[8]
  Papp at 4 h, 50 µM: 48.5 ×10⁻⁶ cm/s
[23]
  remaining at 1 h: > 90%
[24]
  remaining at 1 h, up to 1 µM: > 90%
Liver microsome [25]
  CL free: 9 µL/min/mg

## O=C1Cc2cc(CCN3CCN(c4nsc5ccccc45)CC3)c(Cl)cc2N1 [ZIPRASIDONE]
[26]
  CL free: 28 µL/min/mg
[27]
  CL free: 29 µL/min/mg
[10]
  CL: < 1.8 µL/min/mg
[28]
  CL free: 15 µL/min/mg
[29]
  CL free: 15 µL/min/mg
[7]
  Drug metabolism: metabolite_detected
Liver cytosol [30]
  CL free: 23 µL/min/mg
[31]
  CL free: 28 µL/min/mg
[8]
  Papp at 4 h, 50 µM: 67.2 ×10⁻⁶ cm/s
[24]
  remaining at 1 h, up to 1 µM: > 90%
[32]
  Stability: Stable
Liver [33]
  CL free: 89 µL/min/mg
[9]
  Drug metabolism: metabolite_detected
Liver microsome [25]
  CL free: 118 µL/min/mg
